One assay deals with barnyard grass. Nature of the assay: Test Example 4: herbicidal effect by soil treatment (Table 19, symbol H). The format is in vivo, barnyard grass (Echinochloa crus-galli). As to conditions: 320 g/ha. Put shortly:
(§1)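 Pre-emergence style soil spray: seeds under ~1.5 cm sterilized diluvial soil received a uniform coat of emulsion diluted to the predetermined herbicide amount. Greenhouse 25–30° C; readout at week three on previously defined criteria.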
As to `Cc1nn(C)c(=O)c(-c2c(-c3ccc(OCC(F)(F)F)cc3)sc3ccc(F)cc23)c1O` [2-049], the “herbicidal effect rating, H: barnyard grass” value (“herbicidal effect rating, H” below) is listed as 5 (Herbicidal rate of 90% or more (almost completely withered)).

In the case of `C=CCOc1ccc(-c2sc3ccc(F)cc3c2-c2c(O)c(C)nn(C)c2=O)cc1` [2-051], the “herbicidal effect rating, H” value is 4 (Herbicidal rate of 70% or more and less than 90%).

For the molecule `C#CCOc1ccc(-c2sc3ccc(F)cc3c2-c2c(O)c(C)nn(C)c2=O)cc1` [2-053], the “herbicidal effect rating, H” value was 2 (Herbicidal rate of 20% or more and less than 40%).

A further assay has as its system green foxtail. Nature of the assay: Test Example 4: herbicidal effect by soil treatment (Table 19, symbol G). To be noted: 320 g/ha. The class given is in vivo, green foxtail (Setaria viridis). Put shortly:
as §1
As for `Cc1nn(C)c(=O)c(-c2c(-c3ccc(OCC(F)(F)F)cc3)sc3ccc(F)cc23)c1O` [2-049], the “herbicidal effect rating, G: green foxtail” value (shortened to “herbicidal effect rating, G”) is 5 (Herbicidal rate of 90% or more (almost completely withered)).

In the case of `C=CCOc1ccc(-c2sc3ccc(F)cc3c2-c2c(O)c(C)nn(C)c2=O)cc1` [2-051], the “herbicidal effect rating, G” value is reported as 5 (Herbicidal rate of 90% or more (almost completely withered)).

Consider `C#CCOc1ccc(-c2sc3ccc(F)cc3c2-c2c(O)c(C)nn(C)c2=O)cc1` [2-053], for which the “herbicidal effect rating, G” value was 4 (Herbicidal rate of 70% or more and less than 90%).

The next assay has as its system redroot pigweed. Nature of the assay: Test Example 4: herbicidal effect by soil treatment (Table 19, symbol N). The class given is in vivo, redroot pigweed (Amaranthus retroflexus). To be noted: 320 g/ha. Put shortly: as §1
As to `Cc1nn(C)c(=O)c(-c2c(-c3ccc(OCC(F)(F)F)cc3)sc3ccc(F)cc23)c1O` [2-049], the “herbicidal effect rating, N: redroot pigweed” value (shortened to “herbicidal effect rating, N”) is recorded as 5 (Herbicidal rate of 90% or more (almost completely withered)).

Take `C=CCOc1ccc(-c2sc3ccc(F)cc3c2-c2c(O)c(C)nn(C)c2=O)cc1` [2-051]: the “herbicidal effect rating, N” value is listed as 5 (Herbicidal rate of 90% or more (almost completely withered)).

As to `C#CCOc1ccc(-c2sc3ccc(F)cc3c2-c2c(O)c(C)nn(C)c2=O)cc1` [2-053], the “herbicidal effect rating, N” value was 0 (Herbicidal rate of 5% or less (almost no effect)).

In a further assay the test system is late watergrass. Nature of the assay: Test Example 2: herbicidal activity, application during weed generation under submerged conditions (Table 17, symbol A). The format is in vivo, late watergrass (Echinochloa oryzicola). To be noted: AAH 320 g/ha; application during weed generation, submerged conditions. In outline: (§2)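 Steps: fill Wagner pots with alluvial soil; add water to give 4 cm depth; sow the species mixed; grow under glass at 25–30° C.; at 1–2 leaves apply water-diluted emulsion formulation to the water surface at a fixed herbicide amount; score after 3 weeks.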
In the case of `Cc1nn(C)c(=O)c(-c2c(-c3ccc(OCC(F)(F)F)cc3)sc3ccc(F)cc23)c1O` [2-049], the “herbicidal effect rating, A: late watergrass” value is 0 (Herbicidal rate of 5% or less (almost no effect)).

Turning to `C=CCOc1ccc(-c2sc3ccc(F)cc3c2-c2c(O)c(C)nn(C)c2=O)cc1` [2-051], the “herbicidal effect rating, A: late watergrass” value is reported as 0 (Herbicidal rate of 5% or less (almost no effect)).

Take `C#CCOc1ccc(-c2sc3ccc(F)cc3c2-c2c(O)c(C)nn(C)c2=O)cc1` [2-053]: the “herbicidal effect rating, A: late watergrass” value was 0 (Herbicidal rate of 5% or less (almost no effect)).

A further assay relates to green foxtail. Nature of the assay: Test Example 5: herbicidal effect by foliage application, plastic box (Table 20, symbol G). The class given is in vivo, green foxtail (Setaria viridis). To be noted: foliage application, 320 g/ha, evaluated three weeks after application. In outline:
(§3)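 Plants were sown into sterilized diluvial soil under about 1.5 cm cover and kept in a greenhouse at 25° C. to 30° C. Fourteen days on, foliage received an even spray of the diluted emulsion. Herbicidal or crop effect was judged three weeks afterwards.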
As for `Cc1nn(C)c(=O)c(-c2c(-c3ccc(OCC(F)(F)F)cc3)sc3ccc(F)cc23)c1O` [2-049], the “herbicidal effect on G: green foxtail” value is recorded as 5 (Herbicidal rate of 90% or more (almost completely withered)).

Turning to `C=CCOc1ccc(-c2sc3ccc(F)cc3c2-c2c(O)c(C)nn(C)c2=O)cc1` [2-051], the “herbicidal effect on G: green foxtail” value is listed as 5 (Herbicidal rate of 90% or more (almost completely withered)).

As to `C#CCOc1ccc(-c2sc3ccc(F)cc3c2-c2c(O)c(C)nn(C)c2=O)cc1` [2-053], the “herbicidal effect on G: green foxtail” value is 5 (Herbicidal rate of 90% or more (almost completely withered)).

For another assay, the system named is oval-leafed pondweed. Nature of the assay: Test Example 2: herbicidal activity, application during weed generation under submerged conditions (Table 17, symbol C). To be noted: AAH 320 g/ha; application during weed generation, submerged conditions. The class given is in vivo, oval-leafed pondweed (Monochoria vaginalis). Put shortly: as §2
With `Cc1nn(C)c(=O)c(-c2c(-c3ccc(OCC(F)(F)F)cc3)sc3ccc(F)cc23)c1O` [2-049], the “herbicidal effect rating, C: oval-leafed pondweed” value (shortened to “herbicidal effect rating, C”) was 2 (Herbicidal rate of 20% or more and less than 40%).

With `C=CCOc1ccc(-c2sc3ccc(F)cc3c2-c2c(O)c(C)nn(C)c2=O)cc1` [2-051], the “herbicidal effect rating, C” value was 1 (Herbicidal rate of 5% or more and less than 20%).

`C#CCOc1ccc(-c2sc3ccc(F)cc3c2-c2c(O)c(C)nn(C)c2=O)cc1` [2-053]: the “herbicidal effect rating, C” value was 3 (Herbicidal rate of 40% or more and less than 70%).

A further assay concerns velvetleaf. Nature of the assay: Test Example 4: herbicidal effect by soil treatment (Table 19, symbol M). The class given is in vivo, velvetleaf (Abutilon theophrasti). As to conditions: 320 g/ha. Put shortly: as §1
For the molecule `Cc1nn(C)c(=O)c(-c2c(-c3ccc(OCC(F)(F)F)cc3)sc3ccc(F)cc23)c1O` [2-049], the “herbicidal effect rating, M: velvetleaf” value was 5 (Herbicidal rate of 90% or more (almost completely withered)).

Consider `C=CCOc1ccc(-c2sc3ccc(F)cc3c2-c2c(O)c(C)nn(C)c2=O)cc1` [2-051], for which the “herbicidal effect rating, M: velvetleaf” value is 3 (Herbicidal rate of 40% or more and less than 70%).

As for `C#CCOc1ccc(-c2sc3ccc(F)cc3c2-c2c(O)c(C)nn(C)c2=O)cc1` [2-053], the “herbicidal effect rating, M: velvetleaf” value is 3 (Herbicidal rate of 40% or more and less than 70%).

A further assay deals with Italian ryegrass. Nature of the assay: Test Example 5: herbicidal effect by foliage application, plastic box (Table 20, symbol K). The format is in vivo, Italian ryegrass (Lolium multiflorum). As to conditions: foliage application, 320 g/ha, evaluated three weeks after application. In outline:
as §3
For `Cc1nn(C)c(=O)c(-c2c(-c3ccc(OCC(F)(F)F)cc3)sc3ccc(F)cc23)c1O` [2-049], the “herbicidal effect on K: Italian ryegrass” value is 5 (Herbicidal rate of 90% or more (almost completely withered)).

Take `C=CCOc1ccc(-c2sc3ccc(F)cc3c2-c2c(O)c(C)nn(C)c2=O)cc1` [2-051]: the “herbicidal effect on K: Italian ryegrass” value is 4 (Herbicidal rate of 70% or more and less than 90%).

Regarding `C#CCOc1ccc(-c2sc3ccc(F)cc3c2-c2c(O)c(C)nn(C)c2=O)cc1` [2-053], the “herbicidal effect on K: Italian ryegrass” value was 5 (Herbicidal rate of 90% or more (almost completely withered)).

The next assay relates to persian speedwell. Nature of the assay: Test Example 5: herbicidal effect by foliage application, plastic box (Table 20, symbol R). The class given is in vivo, Persian speedwell (Veronica persica). As to conditions: foliage application, 320 g/ha, evaluated three weeks after application. In outline: as §3
Regarding `Cc1nn(C)c(=O)c(-c2c(-c3ccc(OCC(F)(F)F)cc3)sc3ccc(F)cc23)c1O` [2-049], the “herbicidal effect on R: persian speedwell” value (“herbicidal effect on R” for short) is listed as 5 (Herbicidal rate of 90% or more (almost completely withered)).

For `C=CCOc1ccc(-c2sc3ccc(F)cc3c2-c2c(O)c(C)nn(C)c2=O)cc1` [2-051], the “herbicidal effect on R” value is recorded as 5 (Herbicidal rate of 90% or more (almost completely withered)).

Regarding `C#CCOc1ccc(-c2sc3ccc(F)cc3c2-c2c(O)c(C)nn(C)c2=O)cc1` [2-053], the “herbicidal effect on R” value is given as 5 (Herbicidal rate of 90% or more (almost completely withered)).

The next assay concerns southern crabgrass. Nature of the assay: Test Example 4: herbicidal effect by soil treatment (Table 19, symbol F). The class given is in vivo, southern crabgrass (Digitaria ciliaris). As to conditions: 320 g/ha. In outline:
as §1
`Cc1nn(C)c(=O)c(-c2c(-c3ccc(OCC(F)(F)F)cc3)sc3ccc(F)cc23)c1O` [2-049]: the “herbicidal effect rating, F: southern crabgrass” value (“herbicidal effect rating, F” for short) is 4 (Herbicidal rate of 70% or more and less than 90%).

As for `C=CCOc1ccc(-c2sc3ccc(F)cc3c2-c2c(O)c(C)nn(C)c2=O)cc1` [2-051], the “herbicidal effect rating, F” value is given as 5 (Herbicidal rate of 90% or more (almost completely withered)).

`C#CCOc1ccc(-c2sc3ccc(F)cc3c2-c2c(O)c(C)nn(C)c2=O)cc1` [2-053]: the “herbicidal effect rating, F” value is 0 (Herbicidal rate of 5% or less (almost no effect)).

A further assay relates to blackgrass. Nature of the assay: Test Example 4: herbicidal effect by soil treatment (Table 19, symbol J). The class given is in vivo, blackgrass (Alopecurus myosuroides). To be noted: 320 g/ha. In outline:
as §1
With `Cc1nn(C)c(=O)c(-c2c(-c3ccc(OCC(F)(F)F)cc3)sc3ccc(F)cc23)c1O` [2-049], the “herbicidal effect rating, J: blackgrass” value was 4 (Herbicidal rate of 70% or more and less than 90%).

On to `C=CCOc1ccc(-c2sc3ccc(F)cc3c2-c2c(O)c(C)nn(C)c2=O)cc1` [2-051], for which the “herbicidal effect rating, J: blackgrass” value is 0 (Herbicidal rate of 5% or less (almost no effect)).

Turning to `C#CCOc1ccc(-c2sc3ccc(F)cc3c2-c2c(O)c(C)nn(C)c2=O)cc1` [2-053], the “herbicidal effect rating, J: blackgrass” value is given as 0 (Herbicidal rate of 5% or less (almost no effect)).

In another assay the test system is wild oat. Nature of the assay: Test Example 4: herbicidal effect by soil treatment (Table 19, symbol I). The format is in vivo, wild oat (Avena fatua). To be noted: 320 g/ha. In outline:
as §1
`Cc1nn(C)c(=O)c(-c2c(-c3ccc(OCC(F)(F)F)cc3)sc3ccc(F)cc23)c1O` [2-049]: the “herbicidal effect rating, I: wild oat” value is 0 (Herbicidal rate of 5% or less (almost no effect)).

In the case of `C=CCOc1ccc(-c2sc3ccc(F)cc3c2-c2c(O)c(C)nn(C)c2=O)cc1` [2-051], the “herbicidal effect rating, I: wild oat” value is reported as 0 (Herbicidal rate of 5% or less (almost no effect)).

Turning to `C#CCOc1ccc(-c2sc3ccc(F)cc3c2-c2c(O)c(C)nn(C)c2=O)cc1` [2-053], the “herbicidal effect rating, I: wild oat” value is 0 (Herbicidal rate of 5% or less (almost no effect)).

For the next assay, the system named is Japanese bulrush. Nature of the assay: Test Example 2: herbicidal activity, application during weed generation under submerged conditions (Table 17, symbol B). The class given is in vivo, Japanese bulrush (Schoenoplectus juncoides). To be noted: AAH 320 g/ha; application during weed generation, submerged conditions. Put shortly: as §2
Turning to `Cc1nn(C)c(=O)c(-c2c(-c3ccc(OCC(F)(F)F)cc3)sc3ccc(F)cc23)c1O` [2-049], the “herbicidal effect rating, B: Japanese bulrush” value (“herbicidal effect rating, B” below) is 2 (Herbicidal rate of 20% or more and less than 40%).

`C=CCOc1ccc(-c2sc3ccc(F)cc3c2-c2c(O)c(C)nn(C)c2=O)cc1` [2-051]: the “herbicidal effect rating, B” value was 3 (Herbicidal rate of 40% or more and less than 70%).

Take `C#CCOc1ccc(-c2sc3ccc(F)cc3c2-c2c(O)c(C)nn(C)c2=O)cc1` [2-053]: the “herbicidal effect rating, B” value was 3 (Herbicidal rate of 40% or more and less than 70%).

The next assay has as its system lambsquarters. Nature of the assay: Test Example 5: herbicidal effect by foliage application, plastic box (Table 20, symbol O). The format is in vivo, lambsquarters (Chenopodium album). As to conditions: foliage application, 320 g/ha, evaluated three weeks after application. Put shortly:
as §3
Take `Cc1nn(C)c(=O)c(-c2c(-c3ccc(OCC(F)(F)F)cc3)sc3ccc(F)cc23)c1O` [2-049]: the “herbicidal effect on O: lambsquarters” value is on record as 5 (Herbicidal rate of 90% or more (almost completely withered)).

Consider `C=CCOc1ccc(-c2sc3ccc(F)cc3c2-c2c(O)c(C)nn(C)c2=O)cc1` [2-051], for which the “herbicidal effect on O: lambsquarters” value is listed as 5 (Herbicidal rate of 90% or more (almost completely withered)).

Regarding `C#CCOc1ccc(-c2sc3ccc(F)cc3c2-c2c(O)c(C)nn(C)c2=O)cc1` [2-053], the “herbicidal effect on O: lambsquarters” value was 5 (Herbicidal rate of 90% or more (almost completely withered)).
